Data reported in ChEMBL document CHEMBL1146141, “Synthesis of constrained ceramide analogs and their potent antileukemic activities” (Bioorg Med Chem Lett, 2006).
Active and inactive are the calls of the source. The rule behind the calls is not given here.

What follows are compounds tested on HL-60 (assay: Antileukemic activity against human leukemia HL60 cells at 20 uM).
Assay type: functional, cell-based
In the case of `CCCCCCCCCCCCC/C=C/[C@@H](O)[C@@H]1COC(=O)N1C(=O)CC`, the Activity is reported as “Active”.
For `CCCCCCCCCCCCC/C=C/[C@@H](O)[C@@H]1COC(=O)N1C(=O)c1ccccc1`, the Activity was “Active”.
`CCCCCCCCCCCCC/C=C/[C@@H](O)[C@@H]1COC(=O)N1C(=O)CCCCCCCCCCCCCCC` was tested, and the Activity was “inactive”.
